According to patent US20100204313A1, “Modulation of nerve pain activity by resiniferatoxin and uses thereof” (priority 2007, published 2010):
Entries after “also recorded” stand apart in the source; their conditions may differ.

Assays:
guinea pig bronchi = settings: ex-vivo; sensitive to TRPV1 and tachykinin receptor blockade; cited from earlier work
nocifensive behaviors = settings: 20% ethanol 1.6 gm/kg 3 times a day for 3 days; current 2, 5 and 10 mA; vs saline TNBS rats; P<0.001
Method: Increasing amounts of electrical current were applied to the pancreas through a previously implanted electrode and the total number of nocifensive behaviors was recorded.
Control TNBS rats received an equal volume of normal saline. The next day the rats were tested for their behavioral response for pain by administering successive application of electrical current at 2, 5 and 10 mA for 5 minutes through a pair of electrodes implanted in the pancreas at the time of TNBS administration.

guinea pig airways = settings: intravenous 221 mg/kg or intragastric 790 mg/kg; capsazepine-sensitive; cited from earlier work
gastropancreatic nerves [1] = test system: gastropancreatic nerves
Method: Capsaicin dose was 0.05 mg/0.3 ml in 40% ethanol for each group (n=8 rats/group).
Transient receptor potential vanilloid type-1 activation on the gastric side of gastropancreatic nerves can trigger axonal reflexes. Based on the known interaction between alcohol and transient receptor potential vanilloid type-1, it is possible that intragastric ethanol might also stimulate these nerves. […] At the same time, there was an intra-pancreatic canula in place and recording electrodes positioned around nerve fibers in the greater splanchnic nerve that were responsive to mechanical stimulation of the pancreas. Five minutes after intragastric ethanol, capsaicin was infused into the pancreatic duct.

TRPV1 [2] = settings: various tissues, capsazepine-sensitive; cited from earlier work
TRPV1 [3] = target: T1, TRPV1 (Rattus norvegicus, UniProt O35433); settings: in vitro, cited from earlier work
nociceptors = settings: functional denervation of the pancreas; cited from earlier work
[4] = test system: transient receptor potential vanilloid type-1 on gastric branches of dichotomous gastropancreatic nerves; experiment: Pancreatic edema (water content) after intragastric infusion with pyloric ligation; type: in vivo; settings: intragastric infusion of 1.2 ml of 1.6 μM after pyloric ligation; pancreas harvested 30 minutes later
Method: Capsaicin was infused into the stomach after pyloric ligation and 30 minutes later the pancreas was harvested and water content was measured.
Next, the functional correlate of this anatomical convergence was determined. It was hypothesized that intragastric capsaicin will activate transient receptor potential vanilloid type-1 on gastric branches of dichotomous gastropancreatic nerves and via an axonal reflex result in edema of the pancreas. After pyloric ligation, intragastric infusion of 1.2 ml of 1.6 μM capsaicin was followed 30 minutes later by harvesting of the pancreas and measurement of water content.

TRPV1 [5] = target: T2, TRPV1 (Mus musculus, UniProt Q704Y3); settings: mice, cited from earlier work
T2 construct: capsazepine, a selective TRPV1 antagonist, can reduce cerulein-induced pancreatitis in mice; host or cells: living mice, cerulein-induced pancreatitis

TRPV1 [6] = target: T1, TRPV1; design: host or cells: living rats (sensory neurons), TNBS chronic pancreatitis model; settings: systemic administration, chronic pancreatitis; cited from earlier work
gastropancreatic nerves [7] = experiment: Afferent nerve signaling to colorectal distention after intragastric resiniferatoxin; type: in vivo; settings: rat stomach, 4 hours after intragastric resiniferatoxin vs baseline
Method: The top row represents the baseline response. Note the near complete absence of responses 4 hours after intragastric resiniferatoxin.
Resiniferatoxin is the principal active ingredient in the classic drug Euphorbium, the air-dried latex (resin) of the cactus-like plant Euphorbia resinifera. It is an ultra-potent analog of capsaicin and local application causes desensitization without prior excitation of afferent nerves that lasts for several weeks (Neubert et al, 2003; Kissin et al, 2002; Xu et al, 1997; Craft et al, 1995; Avelino et al, 1999; Acs et al, 1997; Abdel-Salam et al, 1994).

gastric emptying = experiment: Gastric emptying of solid foods after local instillation; type: in vivo, rat; settings: 100 nM/kg, vs control
Method: These experiments were done in male rats. Resiniferatoxin was instilled at 100 nM/kg body weight, 0.6 microgm/ml, into either the stomach or jejunum. Controls received saline in the stomach. Five weeks later gastric emptying of solid foods was measured. […] The combination of faster emptying and anti-nauseant effect makes it a very appropriate treatment for gastroparesis.

afferent nerves = settings: desensitization of afferent nerves; cited from earlier work

T1 sequence (O35433 whole entry): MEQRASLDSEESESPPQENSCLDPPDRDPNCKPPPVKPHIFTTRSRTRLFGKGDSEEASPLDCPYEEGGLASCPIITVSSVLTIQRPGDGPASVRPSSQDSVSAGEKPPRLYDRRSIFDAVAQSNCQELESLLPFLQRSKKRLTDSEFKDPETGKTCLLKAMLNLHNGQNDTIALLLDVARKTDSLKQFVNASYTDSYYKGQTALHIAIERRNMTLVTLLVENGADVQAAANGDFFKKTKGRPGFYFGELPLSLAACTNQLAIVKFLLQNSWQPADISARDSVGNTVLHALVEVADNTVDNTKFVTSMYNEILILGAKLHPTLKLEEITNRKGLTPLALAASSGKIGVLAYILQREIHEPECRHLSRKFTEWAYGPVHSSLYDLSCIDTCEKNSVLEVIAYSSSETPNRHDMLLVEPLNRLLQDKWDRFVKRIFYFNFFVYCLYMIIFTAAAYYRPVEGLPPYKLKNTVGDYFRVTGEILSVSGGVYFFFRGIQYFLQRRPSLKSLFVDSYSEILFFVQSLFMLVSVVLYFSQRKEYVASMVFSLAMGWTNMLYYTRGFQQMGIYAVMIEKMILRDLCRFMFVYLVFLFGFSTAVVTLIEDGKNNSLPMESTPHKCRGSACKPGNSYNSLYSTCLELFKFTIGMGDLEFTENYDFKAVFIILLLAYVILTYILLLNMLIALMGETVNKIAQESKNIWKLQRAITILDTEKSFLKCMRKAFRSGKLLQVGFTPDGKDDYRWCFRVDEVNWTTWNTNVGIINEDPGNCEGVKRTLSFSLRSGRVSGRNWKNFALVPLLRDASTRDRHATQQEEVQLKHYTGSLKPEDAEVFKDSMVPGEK
T2 sequence (Q704Y3 whole entry): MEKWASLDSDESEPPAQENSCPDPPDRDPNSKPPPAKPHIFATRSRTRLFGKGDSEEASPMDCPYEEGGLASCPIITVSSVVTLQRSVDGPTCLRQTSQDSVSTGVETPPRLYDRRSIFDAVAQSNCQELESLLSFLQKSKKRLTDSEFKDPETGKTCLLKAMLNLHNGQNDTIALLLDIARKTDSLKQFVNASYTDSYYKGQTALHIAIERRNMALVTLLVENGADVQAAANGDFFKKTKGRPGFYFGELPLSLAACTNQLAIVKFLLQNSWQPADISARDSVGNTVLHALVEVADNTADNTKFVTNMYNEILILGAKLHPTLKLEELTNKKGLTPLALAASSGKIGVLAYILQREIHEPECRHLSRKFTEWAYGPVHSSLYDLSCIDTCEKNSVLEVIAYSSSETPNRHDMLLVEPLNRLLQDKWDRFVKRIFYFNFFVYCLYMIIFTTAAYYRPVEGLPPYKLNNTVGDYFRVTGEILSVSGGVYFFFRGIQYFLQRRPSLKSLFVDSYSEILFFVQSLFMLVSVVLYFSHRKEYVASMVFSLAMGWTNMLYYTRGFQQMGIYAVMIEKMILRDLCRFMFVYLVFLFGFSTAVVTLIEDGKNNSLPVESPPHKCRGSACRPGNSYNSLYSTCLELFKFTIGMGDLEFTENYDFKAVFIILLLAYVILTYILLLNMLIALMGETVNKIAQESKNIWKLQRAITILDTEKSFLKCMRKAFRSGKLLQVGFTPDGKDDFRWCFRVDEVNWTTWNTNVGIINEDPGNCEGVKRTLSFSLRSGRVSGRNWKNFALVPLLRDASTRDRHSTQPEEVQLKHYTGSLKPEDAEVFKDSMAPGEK

CCO [ethanol]
contractions of bronchi (guinea pig bronchi): caused contractions
number of nocifensive behaviors (nocifensive behaviors): increased the number of nocifensive behaviors significantly
broncho-constriction (guinea pig airways): caused broncho-constriction
plasma extravasation in the airways (guinea pig airways): increased plasma extravasation
multi-unit spike potentials after intra-pancreatic capsaicin (gastropancreatic nerves [1]; intragastric ethanol five minutes before capsaicin into pancreatic duct, vs intragastric saline, P<0.05, n=8 rats/group): significant increase
gastropancreatic nerve activity, ethanol by itself (gastropancreatic nerves [1]; intragastric via orogastric lavage after pyloric ligation, before capsaicin): did not increase
release of substance P (TRPV1 [2]): induce the release
TRPV1 stimulation, capsazepine-sensitive calcium response (TRPV1 [3]; trigeminal and dorsal root ganglia neurons): directly stimulate
sensitization of dorsal root ganglia neurons to the effects of capsaicin (TRPV1 [3]): sensitize

COc1cc(CNC(=O)CCCC/C=C/C(C)C)ccc1O [capsaicin]
acute experimental pancreatitis (nociceptors): significant attenuation
pancreatic edema (water content) [4]: causes pancreatic edema

Oc1cc2c(cc1O)CN(C(=S)NCCc1ccc(Cl)cc1)CCC2 [capsazepine]
NK1R endocytosis in acinar cells (surrogate marker for SP release) (TRPV1 [5]; cerulein-induced pancreatitis): reduction
cerulein induced pancreatitis (TRPV1 [5]): attenuate

COc1cccc(NC(=O)/C=C/c2ccc(Cl)cc2)c1 [SB-366791]
pancreatic pain behavioral response (TRPV1 [6]): markedly reduced

C=C(C)[C@]12C[C@@H](C)[C@@]34O[C@](Cc5ccccc5)(O[C@@H]1[C@@H]3C=C(COC(=O)Cc1ccc(O)c(OC)c1)C[C@]1(O)C(=O)C(C)=C[C@@H]41)O2 [resiniferatoxin]
acute experimental pancreatitis (nociceptors): significant attenuation
afferent nerve signaling to colorectal distention (gastropancreatic nerves [7]): near complete attenuation; also recorded: nearly complete attenuation
percentage of gastric emptying after 3 hours (gastric emptying; instilled into the jejunum five weeks prior, P=0.04, n=4): significant increase
percentage of gastric emptying after 3 hours (gastric emptying; instilled into the stomach five weeks prior, P=0.01, n=4 rats): significant increase
potency relative to capsaicin (afferent nerves): 200 times
